Laboratory results reported in patent US6342517B1, “Potassium channel activators and their use” (Cambridge Bioclinical Limited, priority 1998, dated 2002).
pIC50: −log10 of the molar value.

What was measured:
[1] = tested on: K+-stimulated isolated rat aorta; test: K+-stimulated isolated rat aorta test; details: relaxation of contraction triggered by 25 mM KCl in rat aorta rings; asterisk (*) = low activity, only approximate value
Description: K^+-stimulated Isolated Rat Aorta Test
Male rats weighing about 300 g are killed painlessly by a blow to the neck and quickly exsanguinated. The thoracic cavity is opened and the aorta is carefully resectioned. It is placed in a Petri dish filled with Krebs solution, and surrounding connective and fatty tissue is removed. Two rings are prepared. The rings are each suspended in an organ bath, They are attached at the bottom to a hook and at the top to an electrical force transducer which is able to measure precisely contractions of 0-10 grams in strength. The measured contractions are amplified by means of a bridge amplifier and recorded with a thermal plotter.
The organ baths are filled with Krebs solution at 37° C. through which an O2/CO2 mixture is bubbled thoroughly and which has the following composition (mmol/1): NaCl 118.4; KCl 4.7; CaCl2 2.5; KH2PO4 1.2; MgSO4 1.2; NaHCO3 25; glucose 11.
The rings are stretched with a basic tone of about 0.5 g, After an equilibration time of about 30 minutes, the rings are caused to undergo contraction by depolarization (addition of 25 mM KCl to the organ bath). The contractions of the rings of aorta, triggered by the depolarization, quickly reach a plateau, As soon as this plateau is reached (“100% value”), the test substance is added to the organ bath, initially at low concentrations, for example 10^−8M, and then in increasing doses at regular intervals, until the contractions reduce or the final concentration of 10^−4M is reached. Each test substance is tested 2-4 times in this way.
For purposes of evaluation, the height of the contractions registered on the plotter paper is measured for each experiment after the action of each test concentration added. The IC50 value can be calculated in this way in relation to the original height of contractions before the addition of substance (100%).

NIH 3T3 fibroblasts = test: Cell growth potentiation test (potentiation of mitogenic activity of fetal calf serum, EZ4U cellular proliferation assay); type: cell-based; details: for Cell growth potentiation relative to minoxidil at 100 μM (%): 0% = base concentration of FCS alone (5% or 3%), 100% = minoxidil at 100 μM; for Cell growth relative to FCS alone (%): 100% = same growth as base concentration of FCS alone
Source text: To test for activity in mammalian hair growth stimulation, an in vitro test of cell growth potentiation has been applied to a number of the compounds of the invention and prior art compounds 11901 and 11903. The test involves an assay of the call growth due to potentiation of the mitogenic activity of fetal calf serum (FCS). See WO97/14036. Details of materials, methods and results are as follows.
Tissue culture plastics were obtained from Beckton Dickinson (Cowley, Oxford, UK). NIH 3T3 fibroblasts were obtained from the European collection of animal cell cultures (Salisbury, Wilts, UK). Dulbecco's modified Eagle's medium (DMEM) was obtained from Flow Laboratories (Rickmansworth, Herts, UK). L-Glutamine and fetal calf serum were from Gibco (Paisley, UK).
The EZ4U cell proliferation assay kits were obtained from Cozart Bioscience Ltd (Abingdon, Oxon, UK). All other chemicals were obtained from Sigma Chemical Company Ltd. (Poole, Dorset, UK), and of the highest grade available.
NIH 3T3 fibroblasts were maintained in Dulbecco's modified Eagle's medium supplemented with 10% FCS and 2 mM L-glutamine in 150 cm^2 tissue culture flasks at 37° C. in an atmosphere of 5% CO2/95% air. Antibiotics were omitted. Medium was changed every 3 days, and passages were carried out twice a week before cells reached confluence. Prior to experiments, cells were passaged and plated out to give 10^4 cell/ml in 96-well multi-well plates. Cells were incubated for 24 hours with Dulbecco's modified Eagle's medium supplemented with 10% FCS to aid attachment. This was then removed and the experimental medium added.
Compounds were prepared following a general preparation protocol. This protocol consisted of taking a mass of compound, dissolving in the recommended solvent (40 μl) such that in the final preparation the concentrations of compound and solvent would be 100 μM and 0.1 respectively. In theory this volume was 40 μl, however for accuracy a mass larger than the required mass was dispensed and the solvent volume varied accordingly; only 40 μl of this solution was required for the next stage. The 40 μl volume was then added to a volume of FCS (1.2 ml), such that in the final preparation the concentration of FCS would be 3%. This solution was then added to DMEM containing L-glutamine (2 mM) (18.76 ml). The resulting solution of 20 ml volume was filter stabilised. This solution is now 200 μM in compound, 6% FCS and 0.2% solvent, and so was diluted 1:1 with the DMEM containing L-glutamine. This 100 μM stock could then be diluted serially to provide lower concentrations of the compound of interest. Solutions containing different ratios of compound and FCS were obtained in a similar manner.
This was performed, following the manufacturer's instructions, using an EZ4U assay kit, which is based upon the conversion of tetrazolium salt to coloured formazam derivatives by mitochondria (Hansen et al, 1989). Plates were read on a plate reader (Anthos Labtec HT2), using a measurement filter (450 nm), with a reference filter (620 nm) with a low Shaking density for 5 seconds prior to measurement. Control experiments were made against counting cells in a haemocytometer (sanders et al, 1996). There is some variance of results between different batches of FCS employed.
A series of cell growth potentiation/inhibition tests has been carried out in accordance with the procedure described above on some of the compounds of the invention, on compounds 11901 and 11903 and on minoxidil (a compound well known for its hair growth stimulation effects). Because of some variability of results with different batches of FCS, each compound was tested in a solution of a base concentration of FCS and was compared with minoxidil in a solution of the same base concentration of FCS and with a solution having the same base concentration of FCS alone (no additive), using the same FCS batch in order to provide standardised comparisons for that compound. […]

Compound: CC1(C)CC2(CC3(C)OC3(C)CS2(=O)=O)c2sccc2O1 (stereo not shown) [Compound 50111, 4′,5′-Epoxy-3′,6,6′,7-tetrahydro-4′,5,5,5′-tetramethyl-spiro[5H-thieno[3,2-b]pyran-7,2′-2H-thiopyran]-1′,1′-dioxide]
- pIC50 [1]: 5.52

Compound: CC1=C(C)C[C@@]2(CC(C)(C)Oc3ccsc32)[S@+]([O-])C1 (relative stereo) [Compound 50055, rel-(1′R, 2′S)-3′,6,6′,7-Tetrahydro-4′,5,5′,5-tetramethylspiro[5N-thieno[3,2-b]pyran-7,2′-2H-thiopyran]-1′-oxide]
- pIC50 [1]: ~5.00

Compound: 6′,7′-Dihydro-5′,5′-dimethylspiro[1,3-dithialane-2,7′-5H-thieno[3,2-b]pyran]-2′-carbonitrile [Compound 50066]
- pIC50 [1]: ~5.00
- Cell growth potentiation relative to minoxidil at 100 μM (%) (NIH 3T3 fibroblasts; Compound at 10 μM): 355%
- Cell growth potentiation relative to minoxidil at 100 μM (%) (NIH 3T3 fibroblasts; Compound at 100 μM): 144%

Compound: CC1(C)Oc2cc(S(=O)(=O)c3ccccc3)sc2[C@@H](N2CCCC2=O)[C@@H]1O (relative stereo) [Compound 50123, rel-(6S,7S)-6,7-Dihydro-6-hydroxy-5,5-dimethyl-7-(2-oxo-1-pyrrolidinyl)-2-(phenylsulphonyl)-5H-thieno[3,2-b]pyran]
- pIC50 [1]: 7.59
- Cell growth potentiation relative to minoxidil at 100 μM (%) (NIH 3T3 fibroblasts; Compound at 10 μM): 120%
- Cell growth relative to FCS alone (%) (NIH 3T3 fibroblasts; Compound at 100 μM): 94%

Compound: CC1(C)C[C@]2(SCCC[S@+]2[O-])c2sccc2O1 (relative stereo) [Compound 50070, rel-(1S, 2R)-6′,7′-Dihydro-5′,5′-dimethylspiro[1,3-dithiane-2,7′-5H-thieno[3,2-b]pyran]-1-oxide]
- Cell growth relative to FCS alone (%) (NIH 3T3 fibroblasts; Compound at 10 μM): 81%
- Cell growth relative to FCS alone (%) (NIH 3T3 fibroblasts; Compound at 100 μM): 78%

Compound: CC1(C)C=C(N2CCCC2=O)c2sc(C#N)cc2O1 [Compound 50040, 5,5-Dimethyl-7-(2-oxo-1-pyrrolidinyl)-5H-thieno[3,2-b]pyran-2-carbonitrile]
- Cell growth potentiation relative to minoxidil at 100 μM (%) (NIH 3T3 fibroblasts; Compound at 10 μM): 24%
- Cell growth potentiation relative to minoxidil at 100 μM (%) (NIH 3T3 fibroblasts; Compound at 100 μM): 48%

Compound: CC1(C)C[C@]2(SCC[S@+]2[O-])c2sccc2O1 (relative stereo) [Compound 50065, rel-(1S, 2R)-6′,7′-Dihydro-5′,5′-dimethylspiro[1,3-dithiolane-2,7′-5H-thieno[3,2-b]pyran]-1-oxide]
- pIC50 [1]: ~4.52

Compound: CC1=C(C)C[C@]2(CC(C)(C)Oc3cc(S(=O)(=O)c4ccccc4)sc32)[S@+]([O-])C1 (relative stereo) [Compound 50126, rel-(1′R,2′R)-3′,6,6′,7-Tetrahydro-4′,5,5′,5-tetramethyl-2-(phenylsulphonyl)spiro[5H-thieno[3,2-b]pyran-7,2′-2H-thiopyran]1′-oxide]
- pIC50 [1]: 5.20

Compound: CC1=C(C)C[C@@]2(CC(C)(C)Oc3cc(S(=O)(=O)c4ccccc4)sc32)[S@+]([O-])C1 (relative stereo) [Compound 50127, rel-(1′R,2′S)-3′,6,6′,7-Tetrahydro-4′,5,5′,5-tetramethyl-2-(phenylsulphonyl)spiro[5H-thieno[3,2-b]pyran-7,2′-2H-thiopyran]1′-oxide]
- pIC50 [1]: 5.13

Compound: CC1=C(C)C[C@]2(CC(C)(C)Oc3cc(C#N)sc32)[S@+]([O-])C1 (relative stereo) [Compound 50096, rel-(1′R, 2′R)-3′,6,6′,7-Tetrahydro-4′,5,5′,5-tetramethyl-1′-oxospiro[5H-thieno[3,2-b]pyran-7,2′-2H-thiopyran-2-carbonitrile]
- pIC50 [1]: 5.64

Compound: CC1=C(C)C(C2=CC(C)(C)Oc3cc(C#N)sc32)[S+]([O-])C1 (stereo not shown) [Compound 50106, 5,5-Dimethyl-(2,5-dihydro-3,4-dimethyl-1-oxy-thien-2-yl)-5H-thieno[3,2-b]pyran-2-carbonitrile]
- Cell growth relative to FCS alone (%) (NIH 3T3 fibroblasts; Compound at 10 μM): 80%
- Cell growth potentiation relative to minoxidil at 100 μM (%) (NIH 3T3 fibroblasts; Compound at 100 μM): 60%

Compound: CC1(C)Oc2cc(S(=O)(=O)c3ccccc3)sc2[C@@H](N2CCCC2=O)[C@@H]1O [Compound 50108, (?)-(6S, 7S)-6,7-Dihydro-6-hydroxy-5,5-dimethyl-7-(2-oxo-1-pyrrolidinyl)-2-(phenylsulphonyl)-5H-thieno[3,2-b]pyran]
- pIC50 [1]: 7.74

Compound: CC1(C)C[C@]2(SCC[S@+]2[O-])c2sc(C#N)cc2O1 (relative stereo) [Compound 50068, rel-(1S, 2R)-6′,7′-Dihydro-5′,5′-dimethylspiro[1,3-dithiolane-2,7′-5H-thieno[3,2-b]pyran]-2′-carbonitrile-1-oxide]
- pIC50 [1]: ~4.52

Compound: CC1(C)Oc2cc(C(F)(F)C(F)(F)F)sc2[C@@H](N2CCCCC2=O)[C@@H]1O (relative stereo) [Compound 50174, rel-(6S, 78S)-2-(Pentafluoroethyl)-6,7-dihydro-6-hydroxy-5,5-dimethyl-7-(2-oxo-1-piperidinyl)-5H-thieno[3,2-b]pyran]
- Cell growth potentiation relative to minoxidil at 100 μM (%) (NIH 3T3 fibroblasts; Compound at 10 μM): 244%
- Cell growth potentiation relative to minoxidil at 100 μM (%) (NIH 3T3 fibroblasts; Compound at 100 μM): 133%

Compound: CC1=C(C)CS(=O)(=O)C2(C1)CC(C)(C)Oc1ccsc12 (stereo not shown) [Compound 50110, 3′,6,6′,7-Tetrahydro-4′,5,5,5′-tetramethyl-spiro[5H-thieno[3,2-b]pyran-7,2′-2H-thiopyran]-1′,1′-dioxide]
- pIC50 [1]: 5.00

Compound: Nc1cc(N2CCCCC2)nc(N)[n+]1[O-] [minoxidil, reference compound]
- concentration of greatest potentiation of mitogenic activity of FCS (NIH 3T3 fibroblasts; 5% FCS, FIG. 2, 100% growth = value for 10% FCS): 100 µM

Compound: CC1(C)C[C@@]2(SCC[S@+]2[O-])c2sccc2O1 (relative stereo) [Compound 50064, rel-(1S, 2S)-6′,7′-Dihydro-5′,5′-dimethylspiro[1,3-dithiolane-2,7′-5H-thieno[3,2-b]pyran]-1-oxide]
- pIC50 [1]: ~5.00

Compound: 5,5-Dimethyl-7-(2-oxo-1-pyrrolidinyl)-2-(thiazolin-2-yl)-5-thieno[3,2-b]pyran [Compound 50133]
- Cell growth potentiation relative to minoxidil at 100 μM (%) (NIH 3T3 fibroblasts; Compound at 10 μM): 54%
- Cell growth relative to FCS alone (%) (NIH 3T3 fibroblasts; Compound at 100 μM): 60%

Compound: CC1=C(C)C[C@]2(CC(C)(C)Oc3ccsc32)[S@+]([O-])C1 (relative stereo) [Compound 50054, rel-(1′R, 2′R)-3′,6,6′,7-Tetrahydro-4′,5,5′,5-tetramethylspiro[5H-thieno[3,2-b]pyran-7,2′-2H-thiopyran]-1′-oxide]
- pIC50 [1]: ~5.52
